In patent US20050039223A1, “Knock-in-mouse” (priority 2002, published 2005):

Legend:
[1] = target: T1, nAChR containing α4-T265I (control α4, mutated α4 and β2) (Homo sapiens, UniProt P17787+P43681, T293I); assay: ACh- and CBZ-dose effect, two electrode voltage clamp in Xenopus oocytes expressing receptors containing α4-T265I; format: cell-based
T1 construct: expressed in transfected cells; host or cells: Xenopus oocytes, nuclear cDNA injection
Procedure: Expression experiments in Xenopus oocytes were conducted as previously described (2). Nuclear cDNA injections were conducted using a ratio of 0.5 control α4, 0.5 mutated α4 and 1 β2 (total amount 2 ng/oocytes) (3). The oocytes were kept in BARTH solution containing 88 mM NaCl, 1 mM KCl, 2.4 mM NaHCO3, 10 mM HEPES, 0.82 mM MgSO47H2O, 0.33 mM Ca(NO3)2.4H2O, 0.41 mM CaCl2.6H2O, pH 7.4, adjusted with NaOH and supplemented with kanamycin (20 μg/ml), penicillin (100 μg/ml) and streptomycin (100 μg/ml). Recordings were made 2 to 3 days later using the two electrode voltage clamp technique with a GENE-CLAMP amplifier (Axon Instrument). During the experiments the oocytes were continuously rinsed with OR2 solution: 82.5 mM NaCl, 2.5 mM KCl, 2.5 mM CaCl2, 5 mM HEPES, pH 7.4, adjusted with NaOH. Unless stated otherwise, the holding potential was −100 mV and the experiments were performed at 18° C. ACh dose response curves were best fitted by the sum of two empirical Hill equations: y=Imax{a/(1+(EC50H/x)^nH1)+(1−a)/(1+(EC50L/x)^nH2)} (equation (1)). Imax is the maximal current amplitude and x is the agonist concentration. EC50H, nH1 and a are the half-effective concentration, the Hill coefficient the percentage of receptors in high-affinity state, respectively, whereas EC50L and nH2 correspond to the half-effective concentration and the Hill coefficient in low-affinity state. […]

ADNFLE = ADNFLE patients; antiepileptic drug resistant cases also exist; cited from earlier work

T1 sequence (P43681 29-627 T293I limits assumed): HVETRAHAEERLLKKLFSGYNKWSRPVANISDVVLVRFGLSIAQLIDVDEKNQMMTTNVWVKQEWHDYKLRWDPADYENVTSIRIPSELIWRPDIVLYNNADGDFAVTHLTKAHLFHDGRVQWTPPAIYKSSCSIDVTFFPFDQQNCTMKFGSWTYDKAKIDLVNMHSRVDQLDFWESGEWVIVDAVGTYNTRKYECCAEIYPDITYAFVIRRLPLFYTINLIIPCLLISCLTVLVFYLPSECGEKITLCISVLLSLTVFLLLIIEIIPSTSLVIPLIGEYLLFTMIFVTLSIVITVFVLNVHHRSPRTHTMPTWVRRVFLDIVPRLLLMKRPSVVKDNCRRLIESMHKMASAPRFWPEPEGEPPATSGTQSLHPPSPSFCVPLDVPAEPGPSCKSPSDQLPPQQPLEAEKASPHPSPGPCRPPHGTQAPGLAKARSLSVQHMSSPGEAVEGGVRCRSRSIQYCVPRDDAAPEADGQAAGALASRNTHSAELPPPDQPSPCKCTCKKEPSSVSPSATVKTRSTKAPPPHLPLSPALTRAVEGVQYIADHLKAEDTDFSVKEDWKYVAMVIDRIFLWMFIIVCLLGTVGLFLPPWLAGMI
T1 sequence (P43681 27-627, stated change not applied): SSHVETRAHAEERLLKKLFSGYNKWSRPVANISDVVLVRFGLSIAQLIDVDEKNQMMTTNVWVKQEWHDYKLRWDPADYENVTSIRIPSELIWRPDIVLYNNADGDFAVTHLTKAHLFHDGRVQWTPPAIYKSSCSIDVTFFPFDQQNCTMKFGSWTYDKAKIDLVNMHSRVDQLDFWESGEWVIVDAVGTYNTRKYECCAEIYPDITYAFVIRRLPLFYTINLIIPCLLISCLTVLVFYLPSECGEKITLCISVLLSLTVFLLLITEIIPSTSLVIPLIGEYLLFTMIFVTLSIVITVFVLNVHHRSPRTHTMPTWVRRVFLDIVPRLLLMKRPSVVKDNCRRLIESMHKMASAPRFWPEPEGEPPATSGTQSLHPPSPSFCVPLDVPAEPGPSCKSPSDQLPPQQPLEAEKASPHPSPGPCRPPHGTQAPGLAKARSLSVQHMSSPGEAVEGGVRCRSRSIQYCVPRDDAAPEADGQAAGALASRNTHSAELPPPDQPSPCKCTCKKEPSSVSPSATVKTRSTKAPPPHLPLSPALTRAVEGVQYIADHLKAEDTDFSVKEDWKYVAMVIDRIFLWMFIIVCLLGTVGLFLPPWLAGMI
T1 sequence (P17787 26-502): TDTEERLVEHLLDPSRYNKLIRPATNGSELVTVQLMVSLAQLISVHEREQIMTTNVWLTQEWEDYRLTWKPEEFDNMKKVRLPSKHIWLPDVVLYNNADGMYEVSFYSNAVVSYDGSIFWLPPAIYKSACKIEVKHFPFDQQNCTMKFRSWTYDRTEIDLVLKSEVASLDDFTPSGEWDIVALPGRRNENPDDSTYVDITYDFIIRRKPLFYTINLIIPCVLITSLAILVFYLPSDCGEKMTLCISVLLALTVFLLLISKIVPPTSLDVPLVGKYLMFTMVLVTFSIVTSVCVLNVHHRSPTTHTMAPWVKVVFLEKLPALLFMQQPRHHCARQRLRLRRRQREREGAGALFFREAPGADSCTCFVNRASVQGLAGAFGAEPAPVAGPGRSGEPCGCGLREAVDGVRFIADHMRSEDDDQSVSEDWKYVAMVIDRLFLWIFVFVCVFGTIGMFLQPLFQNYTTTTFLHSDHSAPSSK

Row | SMILES | ACh-sensitivity of the mutated receptors ([1]; α4-T265I mutated receptors compared with control, Xenopus oocytes) | Carbamazepin-sensitivity ([1]; α4-T265I compared with control, CBZ inhibition of ACh-evoked currents) | Treatability of ADNFLE (ADNFLE)
1 | CC(=O)OCC[N+](C)(C)C [ACh] | increased | – | –
2 | NC(=O)N1c2ccccc2C=Cc2ccccc21 [Carbamazepin, Carbamazepine] | – | non-increased | can normally be well treated
